Experimental findings from US7875618B2, “Substituted imidazo[1,5-a]quinoxalines useful as inhibitors of phosphodiesterase 10 for the treatment of neurological and other disorders” (Wyeth, priority 2007, dated 2011) are described below.

Some results are limits rather than exact numbers.

As usually defined, the IC50 is the point on the concentration scale where inhibition reaches its midpoint.

For the test, the target named is T1, human recombinant PDE10A (Homo sapiens, UniProt Q9Y233).
T1 construct: made in house; host or cells: SF21 insect cells (baculovirus)
T1 sequence (Q9Y233 1-779 isoform Q9Y233-1): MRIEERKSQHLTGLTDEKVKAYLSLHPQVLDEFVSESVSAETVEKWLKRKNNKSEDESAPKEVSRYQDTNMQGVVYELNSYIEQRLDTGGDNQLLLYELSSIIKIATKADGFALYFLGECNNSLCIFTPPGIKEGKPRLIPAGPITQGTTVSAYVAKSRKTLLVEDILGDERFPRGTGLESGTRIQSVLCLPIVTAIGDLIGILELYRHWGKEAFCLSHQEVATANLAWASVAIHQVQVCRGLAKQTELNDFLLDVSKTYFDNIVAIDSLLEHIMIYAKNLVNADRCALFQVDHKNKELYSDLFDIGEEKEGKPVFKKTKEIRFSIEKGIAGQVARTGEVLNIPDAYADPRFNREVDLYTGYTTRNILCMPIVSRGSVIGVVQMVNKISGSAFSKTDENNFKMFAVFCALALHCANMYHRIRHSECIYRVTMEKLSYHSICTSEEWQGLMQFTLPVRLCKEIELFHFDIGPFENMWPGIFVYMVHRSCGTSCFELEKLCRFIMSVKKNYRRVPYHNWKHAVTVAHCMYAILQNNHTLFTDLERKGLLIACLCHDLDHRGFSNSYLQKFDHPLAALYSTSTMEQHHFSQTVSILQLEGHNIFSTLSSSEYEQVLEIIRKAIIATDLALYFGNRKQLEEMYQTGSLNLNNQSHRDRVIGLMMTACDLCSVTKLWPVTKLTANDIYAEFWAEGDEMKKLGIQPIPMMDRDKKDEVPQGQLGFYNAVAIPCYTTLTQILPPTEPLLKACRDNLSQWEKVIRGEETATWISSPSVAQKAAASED
As to the kind of experiment: Inhibition of human recombinant PDE10A ([3H]-cAMP SPA, Method B). Type of test: biochemical. As to conditions: read-out: PDE10 inhibition IC50 [nM] PDE10A human. The procedure: The gene was than inserted into a baculovirus vector, ligated with the baculovirus DNA. The enzyme-protein was expressed in SF21-cells. The enzyme was isolated from these cells by harvesting the cells by a centrifugation at 200 g to collect the cells. The cells were resuspended in 50 mM Tris-HCl/5 mM MgCl2 buffer (pH=7.4) and lysed by a sonication of the cells. The cytosolic PDE10A was obtained by a centrifugation at 48000 g for 1 h in the supernatant and stored at −70° C. PDE10 activity was determined in a one step procedure in microtiterplates. […] Nonspecific activity was tested without the enzyme. The reaction was initiated by addition of the substrate solution and was carried out at 37° C. for 30 minutes. Enzymatic activity was stopped by addition of 25 μl YSi-SPA-beads (Amersham-Pharmacia). One hour later the mixture was measured in a liquid scintillation counter for microtiterplates (Microbeta Trilux). To pipette the incubation mixture a robot Biomek (Fa. Beckman) is used. […] For determination of IC50 values the Hill-plot, 2-parameter-model, was used.
As for `COc1cc(F)c2nc(C)c3c(C)nc(-c4ccccc4Cl)n3c2c1` [Example 77, 1-(2-chlorophenyl)-6-fluoro-8-methoxy-3,4-dimethylimidazo[1,5-a]quinoxaline], the IC50 is no more than 10 nM.

As to `COc1ccc2nc(C)c3c(C)nc(-c4cnccc4OC)n3c2c1` [Example 110, 8-methoxy-1-(4-methoxypyridin-3-yl)-3,4-dimethylimidazo[1,5-a]quinoxaline], the IC50 was in the range of 10 to 100 nM.

`COc1cc(F)c2nc(C)c3c(C)nc(-c4ccccc4C)n3c2c1` [Example 31, 6-Fluoro-8-methoxy-3,4-dimethyl-1-(2-methylphenyl)-imidazo[1,5-a]quinoxaline]: the IC50 was no more than 10 nM.

As to `COc1cc(F)c2nc(C)c3c(C)nc(-c4ccc(F)cc4Cl)n3c2c1` [Example 33, 1-(2-Chloro-4-fluorophenyl)-6-fluoro-8-methoxy-3,4-dimethylimidazo[1,5-a]quinoxaline], the half-inhibitory concentration (IC50) is no more than 10 nM.

Consider `Cc1nc(-c2ccc(F)c(C(N)=O)c2)n2c1c(C)nc1ccc(Cl)cc12` [Example 68, 5-(8-chloro-3,4-dimethylimidazo[1,5-a]quinoxalin-1-yl)-2-fluorobenzamide], for which the IC50 is 10 to 100 nM.

Regarding `COc1cc2nc(C)c3c(C)nc(-c4ccccc4C)n3c2cc1Cl` [Example 126, 8-chloro-7-methoxy-3,4-dimethyl-1-(2-methylphenyl)imidazo[1,5-a]quinoxaline], the 50% inhibitory concentration (IC50) was no more than 10 nM.

Take `Cc1nc(F)ccc1-c1nc(C)c2c(C)nc3ccc(F)cc3n12` [Example 139, 8-fluoro-1-(6-fluoro-2-methylpyridin-3-yl)-3,4-dimethylimidazo[1,5-a]quinoxaline]: the half-maximal inhibitory concentration (IC50) was no less than 100 nM.

Turning to `COc1cc2nc(C)c3c(C)nc(-c4ccncc4C)n3c2cc1Cl` [Example 127, 8-chloro-7-methoxy-3,4-dimethyl-1-(3-methylpyridin-4-yl)imidazo[1,5-a]quinoxaline], the IC50 is no more than 10 nM.

Regarding `COc1ccc2nc(C)c3c(C)nc(-c4cc(Cl)ccc4C)n3c2c1` [Example 107, 1-(5-chloro-2-methylphenyl)-8-methoxy-3,4-dimethylimidazo[1,5-a]quinoxaline], the IC50 was no more than 10 nM.

Consider `COc1cccc2c1nc(C)c1c(C)nc(-c3ccccc3C)n12` [Example 133, 6-Methoxy-3,4-dimethyl-1-(2-methylphenyl)imidazo[1,5-a]quinoxaline], for which the IC50 was no more than 10 nM.

Consider `Cc1nc(-c2cccc(C(N)=O)c2)n2c1c(C)nc1ccc(Cl)cc12` [Example 64, 3-(8-chloro-3,4-dimethylimidazo[1,5-a]quinoxalin-1-yl)benzamide], for which the IC50 was no more than 10 nM.

Consider `CCCc1nc(C)c2c(Cl)nc3ccc(OC)cc3n12` [Intermediate B1, 4-chloro-8-methoxy-3-methyl-1-propyl-imidazo[1,5-a]quinazoline], for which the IC50 lay within 10 to 100 nM.

Consider `COc1ccc2nc(C)c3c(C)nc(-c4ccccc4C)n3c2c1` [Example 115, 8-methoxy-3,4-dimethyl-1-(2-methylphenyl)imidazo[1,5-a]quinoxaline], for which the IC50 was no more than 10 nM.

With `COc1ccncc1-c1nc(C)c2c(C)nc3c(OC)cc(F)cc3n12` [Example 80, 8-fluoro-6-methoxy-1-(4-methoxypyridin-3-yl)-3,4-dimethylimidazo[1,5-a]quinoxaline], the half-maximal inhibitory concentration (IC50) was no more than 10 nM.

Take `COc1ccc2nc(C)c3c(C)nc(-c4ccc(Cl)cc4C(F)(F)F)n3c2c1` [Example 106, 1-[4-chloro-2-(trifluoromethyl)phenyl]-8-methoxy-3,4-dimethylimidazo[1,5-a]quinoxaline]: the IC50 is 10 to 100 nM.

Regarding `COc1cc2nc(C)c3c(C)nc(-c4c(C)nn(C)c4C)n3c2cc1Cl` [Example 131, 8-chloro-7-methoxy-3,4-dimethyl-1-(1,3,5-trimethyl-1H-pyrazol-4-yl)imidazo[1,5-a]quinoxaline], the half-inhibitory concentration (IC50) was no more than 10 nM.

On to `Cc1ccccc1-c1nc(C)c2c(C)nc3ccc(OC(F)(F)F)cc3n12` [Example 118, 3,4-dimethyl-1-(2-methylphenyl)-8-(trifluoromethoxy)imidazo[1,5-a]quinoxaline], for which the IC50 was no more than 10 nM.

For the molecule `Cc1nc(F)ccc1-c1nc(C)c2c(C)nc3ccccc3n12` [Example 103, 1-(6-fluoro-2-methylpyridin-3-yl)-3,4-dimethylimidazo[1,5-a]quinoxaline], the half-maximal inhibitory concentration (IC50) fell in the range of 10 to 100 nM.

Regarding `COc1ccc2nc(C)c3c(C)nc(-c4cccc(F)c4C)n3c2c1` [Example 109, 1-(3-fluoro-2-methylphenyl)-8-methoxy-3,4-dimethylimidazo[1,5-a]quinoxaline], the IC50 was no more than 10 nM.

On to `Cc1nc(-c2cccnc2)n2c1c(C)nc1ccc(F)cc12` [Example 144, 8-fluoro-3,4-dimethyl-1-pyridin-3-ylimidazo[1,5-a]quinoxaline], for which the half-inhibitory concentration (IC50) was no less than 100 nM.

As for `Cc1ccsc1-c1nc(C)c2c(C)nc3ccccc3n12` [Example 99, 3,4-dimethyl-1-(3-methyl-2-thienyl)imidazo[1,5-a]quinoxaline], the IC50 lay in the range of 10 to 100 nM.

`COc1cc(F)cc2c1nc(C)c1c(C)nc(-c3ccccc3Cl)n12` [Example 85, 1-(2-chlorophenyl)-8-fluoro-6-methoxy-3,4-dimethylimidazo[1,5-a]quinoxaline]: the IC50 was no more than 10 nM.

For the molecule `Cc1nc(-c2ccc(F)c(C(N)=O)c2)n2c1c(C)nc1ccc(F)cc12` [Example 135, 2-fluoro-5-(8-fluoro-3,4-dimethylimidazo[1,5-a]quinoxalin-1-yl)benzamide], the half-maximal inhibitory concentration (IC50) lay in the range of 10 to 100 nM.

For the molecule `Cc1noc(C)c1-c1nc(C)c2c(C)nc3ccccc3n12` [Example 100, 1-(3,5-dimethylisoxazol-4-yl)-3,4-dimethylimidazo[1,5-a]quinoxaline], the IC50 was no less than 100 nM.

On to `COc1ccc2nc(C)c3c(C)nc(-c4ccc(F)cc4C)n3c2c1` [Example 108, 1-(4-fluoro-2-methylphenyl)-8-methoxy-3,4-dimethylimidazo[1,5-a]quinoxaline], for which the IC50 was in the range of 10 to 100 nM.

Turning to `Cc1nc(-c2cccc(C(N)=O)c2)n2c1c(C)nc1ccc(OC(F)(F)F)cc12` [Example 120, 3-[3,4-dimethyl-8-(trifluoromethoxy)imidazo[1,5-a]quinoxalin-1-yl]benzamide], the IC50 is no more than 10 nM.

Regarding `Cc1nc(F)ccc1-c1nc(C)c2c(C)nc3ccc(Cl)cc3n12` [Example 62, 8-chloro-1-(6-fluoro-2-methylpyridin-3-yl)-3,4-dimethylimidazo[1,5-a]quinoxaline], the half-maximal inhibitory concentration (IC50) was in the range of 10 to 100 nM.

Regarding `COc1cc2nc(C)c3c(C)nc(-c4cccnc4C)n3c2cc1Cl` [Example 130, 8-chloro-7-methoxy-3,4-dimethyl-1-(2-methylpyridin-3-yl)imidazo[1,5-a]quinoxaline], the IC50 was no more than 10 nM.

Consider `Cc1nc(-c2cc(C(N)=O)ccc2F)n2c1c(C)nc1ccccc12` [Example 102, 3-(3,4-dimethylimidazo[1,5-a]quinoxalin-1-yl)-4-fluorobenzamide], for which the IC50 was in the range of 10 to 100 nM.

On to `COc1ccc2nc(C)c3c(C)nc(-c4ccc(F)nc4C)n3c2c1` [Example 113, 1-(6-fluoro-2-methylpyridin-3-yl)-8-methoxy-3,4-dimethylimidazo[1,5-a]quinoxaline], for which the IC50 was in the range of 10 to 100 nM.

As to `COc1ccncc1-c1nc(C)c2c(C)nc3ccc(F)cc3n12` [Example 140, 8-fluoro-1-(4-methoxypyridin-3-yl)-3,4-dimethylimidazo[1,5-a]quinoxaline], the half-inhibitory concentration (IC50) is no less than 100 nM.

Turning to `COc1cc2nc(C)c3c(C)nc(-c4ccccc4Cl)n3c2cc1Cl` [Example 129, 8-chloro-1-(2-chlorophenyl)-7-methoxy-3,4-dimethylimidazo[1,5-a]quinoxaline], the IC50 was no more than 10 nM.

On to `Cc1nc(-c2cc(F)cc(C(N)=O)c2)n2c1c(C)nc1ccc(F)cc12` [Example 136, 3-fluoro-5-(8-fluoro-3,4-dimethylimidazo[1,5-a]quinoxalin-1-yl)benzamide], for which the 50% inhibitory concentration (IC50) lay within 10 to 100 nM.

Regarding `Cc1nc(-c2ccccc2Cl)n2c1c(C)nc1ccc(Cl)cc12` [Example 67, 8-chloro-1-(2-chlorophenyl)-3,4-dimethylimidazo[1,5-a]quinoxaline], the IC50 was no more than 10 nM.

Consider `COc1cc(F)c2nc(C)c3c(C)nc(-c4cccc(F)c4C)n3c2c1` [Example 32, 6-Fluoro-1-(3-fluoro-2-methylphenyl)-8-methoxy-3,4-dimethylimidazo[1,5-a]quinoxaline], for which the half-maximal inhibitory concentration (IC50) is no more than 10 nM.

Turning to `Cc1ccccc1-c1nc(C)c2c(C)nc3ccc(C(F)(F)F)cc3n12` [Example 125, 3,4-dimethyl-1-(2-methylphenyl)-8-(trifluoromethyl)imidazo[1,5-a]quinoxaline], the IC50 lay in the range of 10 to 100 nM.

Turning to `COc1cc2nc(C)c3c(C)nc(-c4cnccc4C)n3c2cc1Cl` [Example 128, 8-chloro-7-methoxy-3,4-dimethyl-1-(4-methylpyridin-3-yl)imidazo[1,5-a]quinoxaline], the half-inhibitory concentration (IC50) lay within 10 to 100 nM.

In the case of `COc1ccc2nc(C)c3c(C)nc(-c4cccc(C(N)=O)c4)n3c2c1` [Example 112, 3-(8-methoxy-3,4-dimethylimidazo[1,5-a]quinoxalin-1-yl)benzamide], the 50% inhibitory concentration (IC50) was no more than 10 nM.

Take `COc1ccc2nc(C)c3c(C)nc(-c4ccc(F)cc4Cl)n3c2c1` [Example 105, 1-(2-chloro-4-fluorophenyl)-8-methoxy-3,4-dimethylimidazo[1,5-a]quinoxaline]: the half-inhibitory concentration (IC50) is no more than 10 nM.

Consider `Cc1nc(-c2cccc(C(N)=O)c2)n2c1c(C)nc1ccccc12` [Example 101, 3-(3,4-dimethylimidazo[1,5-a]quinoxalin-1-yl)benzamide], for which the half-inhibitory concentration (IC50) was in the range of 10 to 100 nM.
